These results are taken from PMC11595689, “Aeruginosin 525 (AER525) from Cyanobacterium Aphanizomenon Sp. (KUCC C2): A New Serine Proteases Inhibitor” (Marine Drugs, 2024).

“Also recorded” adds a separate entry of the source.

For assay [1], the target named is T1, thrombin (Homo sapiens, UniProt P00734).
T1 construct: purchased Sigma Aldrich
As to the kind of experiment: Thrombin inhibition assay. The format is biochemical. As for the experimental part:
(§1) The enzyme inhibitory activity of fractions and AER525 was tested against trypsin [55], chymotrypsin [56], thrombin [56], elastase, and carboxypeptidase A [56]. For full details on trypsin, chymotrypsin, thrombin, and elastase inhibition assay refer to the work of Overlingė et al.. In the carboxypeptidase A assay, the final concentration of the enzyme was 1.6 µM, N-(4-methoxy-phenyl-azoformyl)-Phe-OH (GLPBIO Technology LLC; Montclair, CA, USA) at a concentration of 0.2 mg mL^−1 served as a substrate, and the carboxypeptidase inhibitor from potato tuber was used at a concentration range of 2.5–150 µg mL^−1. Mixtures containing the sample (10 µL) or inhibitor (10 µL) were preincubated with the enzyme (10 µL) and buffer (160 µL; 50 mM Tris-HCl at pH 7.5) at 25 °C. After 10 min, the substrate (20 µL) was added, and the reaction mixture was incubated for another 10 min at 25 °C. The absorbance of the solutions was measured at 350 nm with the application of a microplate reader (Varioskan Flash, Thermo Fisher Scientific OY, Vantaa, Finland). All enzymes were from Sigma Aldrich (St. Louis, MO, USA); 1% v/v DMSO was used to dissolve fractions at final concentrations of 45 µg mL^−1, while for pure AER525, it was additionally serially diluted to 45, 4.5, 0.45, and 0.045 µg mL^−1. […]

The test system of assay [2] is elastase. In words: Elastase inhibition assay. The class given is biochemical. Conditions: highest concentration 45 µg mL^−1. As for the experimental part: as §1
The target in assay [3] is T2, chymotrypsin (Bos taurus, UniProt P00766).
T2 construct: purchased Sigma Aldrich
As to the kind of experiment: Chymotrypsin inhibition assay. To be noted: highest concentration 45 µg mL^−1. The class given is biochemical. On the procedure: as §1

The conditions of assay [4]: ref [10],[11]; cited from earlier work. The text has this:
(§2) In addition to the nutritional properties of Aphanizomenon, assessed mainly based on the analyses of extracts, there are several studies showing that the cyanobacterium produces metabolites of significant biological activities.

The test system of assay [5] is human cytosolic enzyme which is involved both in tumor progression and phytochemical bioavailability. Conditions: ref [12]; cited from earlier work.
Description: as §2

Turning to `CC(C)C[C@@H](NC(=O)[C@@H](N)CO)C(=O)N1[C@H](C(=O)N[C@H](C=O)CCCNC(=N)N)C[C@@H]2CC[C@@H](O)C[C@@H]21` [AER525], in assay [1], the “activity against thrombin (in words)” value is recorded as “potent activity; also recorded: strong thrombin-inhibitory activity” and the “potency of thrombin inhibition, AER525 compared with dysinosin D (in words)” value is reported as “comparable potency”. For the same compound, the “activity against elastase (in words)” value in assay [2] is recorded as “no effect; also recorded: No activity”. Further, the “Elastase enzyme inhibition (IC50)” value in assay [2] (triplicates) is recorded as “- (not active (inhibition below 10%))”. Further, in assay [3], the “activity against chymotrypsin (in words)” value is reported as “no effect”.

Turning to `NCCc1ccccc1` [β-phenylethylamine], the “alleviating depression and anxiety symptoms (in words)” value in assay [4] is “showed effectiveness in alleviating depression and anxiety symptoms”. Further, in assay [5], the “inhibition of the human cytosolic enzyme (in words)” value was “acted as inhibitors”.

phycocyanobilin: the “alleviating depression and anxiety symptoms (in words)” value in assay [4] is “showed effectiveness in alleviating depression and anxiety symptoms”. Besides, in assay [5], the “inhibition of the human cytosolic enzyme (in words)” value was “acted as inhibitors”.
